This is an account of results in US20260272936A1, “TREATMENT OF CANCER WITH A PARG INHIBITOR” (858 Therapeutics, Inc., priority 2023, published 2026).

Molecules are shown by their SMILES.

One series concerns HCC1806 xenograft. As to the kind of experiment: HCC1806 triple negative breast cancer CDX, combination with camonsertib (RP-3500). Details: species or system Athymic nude mice. The conditions noted are these: mouse, in vivo. How it is done:
HCC1806 cells were cultured in RPMI medium containing 10% FBS (Thermo Fisher Scientific Cat #A31605-02) and penicillin+streptomycin (Thermo Fisher Scientific Cat #15070-063). The CDX model was established by subcutaneous inoculation of 1×10^6 HCC1806 cells/mouse into the right flank of Athymic nude mice (The Jackson Laboratory, Bar Harbor, ME, USA, Cat #002019). […] Compound 1 was administered to mice at 200 mg/kg to mice orally once daily from Monday through Friday throughout the treatment period and camonsertib (RP-3500) was administered at 15 mg/kg orally once daily from Monday through Wednesday throughout the treatment period (Table 11).
Tumor volumes and body weights were measured twice weekly. […] Statistical analysis of end-of-study tumor volumes relative to the vehicle group tumor volume was performed using Kruskal-Wallis Anova test with Dunn's multiple comparisons test.

Series [1] relates to Resistant SNU601 cells (acquired niraparib resistance). The series can be described thus: 6-day proliferation, nuclei count, PARP inhibitor resistant line. In kind it is cell-based, human. The protocol: The SNU601 gastric carcinoma cell line (Creative Bioarray, Cat #CSC-C9686L) was cultured in RPMI media containing glutamax, 10% fetal bovine serum, and 1% penicillin/streptomycin at 37° C., 5% CO2. To generate a PARP inhibitor resistant cell line, an IC20 concentration of niraparib was added to the culture media.
Compound 1 and the PARP inhibitor niraparib were tested in cellular proliferation assays using the parental SNU601 cell line and the SNU601 cell line with acquired PARPi resistance. For the proliferation assays, cells were plated in 96-well plates (Corning costar 3603) at 2500-5000 cells/well in normal growth media. The next day, compound dissolved in vehicle (0.5% DMSO in media) was added to generate a 7- to 10-point concentration curve with half-log dilutions and starting concentrations of 10 or 31.6 μM. After 6 days of compound or vehicle treatment, the cells were fixed with a solution of 8% paraformaldehyde, 0.2% Triton X-100 for 20 minutes. After washing the cells with PBS, the nuclei were stained by the addition of DAPI (4′,6-diamidino-2-phenylindole) and incubation for 20 minutes. The number of nuclei in each well were counted by imaging the plates on an Image Xpress Pico automated cell imaging system (Molecular Devices). The percent proliferation after treatment was determined by normalizing the number of nuclei in treated wells to the vehicle-treated wells. Concentration-response-curves and IC50 values for percent inhibition of proliferation were generated by non-linear regression analysis using GraphPad Prism 10 software.

A further series deals with GP2D cells. The series can be described thus: 6-day growth assay, Compound 1 in combination with exatecan. The class given is cell-based, human. The protocol: The activity of Compound 1 in combination with exatecan was evaluated in the HCC1954, HCC1806, and GP2D cancer cell lines in a 6-day growth assay. HCC1954 (Cat #CRL-2338) and HCC1806 (Cat #CRL-2335) cells were obtained from American Type Culture Collection (ATCC) and maintained in ATCC modified RPMI (Cat #30-2001)+10% FBS (Cat #A3160502)+1% penicillin/streptomycin (Cat #15140-122) in a humidified incubator at 37° C., 5% CO2. GP2D cells were obtained from ECACC (Cat #95090714-1VL) and maintained in DMEM+GlutaMAX (Cat #10566-016)+10% FBS (Cat #A3160502)+1% penicillin/streptomycin (Cat #15140-122). Cells were seeded at 2,500 cells/well (HCC1954 and GP2D) or 2,000 cells/well (HCC1806) in 100 μL of growth medium in a 96-well plate (Corning costar Cat #3603) and allowed to adhere overnight at 37° C. with 5% CO2. The next day, serial dilutions of Compound 1 and exatecan were prepared and added to the corresponding wells of a 96-well plate. A solution of 0.1% DMSO in medium was used as the negative control. Cells were incubated with compound for 6 days at 37° C. with 5% CO2, then fixed, stained, and counted as described in Example 3. Concentration response-curves and IC50 values were generated by non-linear regression analysis using a 4-parameter variable slope fit in GraphPad Prism 10 software. Potential synergy between Compound 1 and exatecan was assessed using Zero interaction potency (ZIP), Highest Single Agent (HSA), Bliss, and Loewe synergy models to find the most synergistic area score, where scores >10 indicate that the interaction between the two drugs is likely to be synergistic (Ianevski et al. 2020).

The subject of series [2] is HBCx-34 breast cancer patient-derived xenograft. As to the kind of experiment: HBCx-34 breast cancer PDX model. The class given is in vivo, Hsd: Athymic Nude-Foxn1nu mice. Particulars: 75 or 100 mg/kg BID, at day 15, transient. The protocol:
(§1) The PDX models were established by subcutaneous inoculation of HBCx-22 or HBCx-34 cells into Hsd: Athymic Nude-Foxn1nu mice. Breast tumor-bearing mice received estrogen diluted in drinking water (β-oestradiol, 8.5 mg/L) from the date of tumor inoculation until the end of the study to promote optimal growth of the ER^+ cell line. Groups of 10 animals each were established by random assignment. Tumor volumes and body weights were measured twice weekly. […] Statistical analysis of end-of-study tumor volumes was performed using the Kruskal-Wallis test with Dunn's multiple comparisons test (HBCx-34) or Brown-Forsythe test with Dunnett's T3 multiple comparisons test (HBCx-22).
(§2) Compound 1 was administered to mice orally twice daily (BID) for 42 days at a dose of 75 or 100 mg/kg based on body weight. […] Compound 1 was administered to mice orally BID for 35 days at doses of 75 or 100 mg/kg based on body weight.

For series [3], the system named is HBCx-22 breast cancer patient-derived xenograft. The series can be described thus: HBCx-22 breast cancer PDX model. In kind it is in vivo, Hsd: Athymic Nude-Foxn1nu mice. The conditions noted are these: 75 or 100 mg/kg BID, 42 days. The protocol: as §1, §2

In the case of `[2H]C([2H])(c1cnn(C)c1)N1C(=O)c2cc(S(=O)(=O)NC3(C)CC3)ccc2N2C1=NC[C@H]2C` [Compound 1, (R)-1-methyl-4-((1-methyl-1H-pyrazol-4-yl)methyl-d2)-N-(1-methylcyclopropyl)-5-oxo-1,2,4,5-tetrahydroimidazo[1,2-a]quinazoline-7-sulfonamide], the “body weight change during the treatment period” value in the series on HCC1806 xenograft is “body weight gains”. Further, the “better potency than niraparib in PARPi resistant SNU601” value in series [1] is on record as 10 ×. Besides, the IC50 is 320 nM in series [1] (Homo sapiens, SNU-601, 144 h, read-out: IC50 inhibition of proliferation); 6 µM in the series on GP2D cells (Homo sapiens, GP2d, exatecan 0.03 nM); 5.1 µM in the series on GP2D cells (Homo sapiens, GP2d, exatecan 0.1 nM); 3.1 µM with GP2D cells (Homo sapiens, GP2d, exatecan 0.3 nM); 3.1 µM in the series on GP2D cells (Homo sapiens, GP2d, exatecan 1 nM); 8.1 µM with GP2D cells (Homo sapiens, GP2d, exatecan 3 nM). In addition, the IC50 with GP2D cells (Homo sapiens, GP2d, exatecan 30 nM) was determined as 5.4 µM; with GP2D cells (exatecan 0.03 nM) it was 6.3 µM; in the series on GP2D cells (exatecan 1 nM), 3.3 µM. For the same compound, the “maximum decrease in body weight” value in series [2] was “approximately 11%”. Besides, the “tolerability (body weight)” value in series [3] is “generally well tolerated”.
